In patent US9096500B2, “Acyl sulfonamide compounds” (Pfizer Limited, priority 2010, dated 2015):

Target: T1, Nav1.7 (or SCN9A) channel (Homo sapiens, UniProt Q15858)
T1 construct: expressed in transfected cells
Assay: Nav1.7 (hSCN9A) electrophysiology assay, PatchXpress platform
Assay type: cell-based
Conditions: estimated IC50 from single point electrophysiology data, HEK cells stably expressing hSCN9A, held at V1/2 of inactivation, read-out: Nav1.7 EIC50
Procedure, shortened: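 HEK cells stably expressing hSCN9A were recorded by whole-cell voltage clamp, including on PatchXpress, at 22–24°C with extracellular solution at pH 7.4. A 20 msec step to 0 mV followed an 8 s conditioning prepulse to the empirically determined inactivation V1/2. Inhibition was taken from current amplitude before vs after compound.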

T1 sequence (Q15858 whole entry): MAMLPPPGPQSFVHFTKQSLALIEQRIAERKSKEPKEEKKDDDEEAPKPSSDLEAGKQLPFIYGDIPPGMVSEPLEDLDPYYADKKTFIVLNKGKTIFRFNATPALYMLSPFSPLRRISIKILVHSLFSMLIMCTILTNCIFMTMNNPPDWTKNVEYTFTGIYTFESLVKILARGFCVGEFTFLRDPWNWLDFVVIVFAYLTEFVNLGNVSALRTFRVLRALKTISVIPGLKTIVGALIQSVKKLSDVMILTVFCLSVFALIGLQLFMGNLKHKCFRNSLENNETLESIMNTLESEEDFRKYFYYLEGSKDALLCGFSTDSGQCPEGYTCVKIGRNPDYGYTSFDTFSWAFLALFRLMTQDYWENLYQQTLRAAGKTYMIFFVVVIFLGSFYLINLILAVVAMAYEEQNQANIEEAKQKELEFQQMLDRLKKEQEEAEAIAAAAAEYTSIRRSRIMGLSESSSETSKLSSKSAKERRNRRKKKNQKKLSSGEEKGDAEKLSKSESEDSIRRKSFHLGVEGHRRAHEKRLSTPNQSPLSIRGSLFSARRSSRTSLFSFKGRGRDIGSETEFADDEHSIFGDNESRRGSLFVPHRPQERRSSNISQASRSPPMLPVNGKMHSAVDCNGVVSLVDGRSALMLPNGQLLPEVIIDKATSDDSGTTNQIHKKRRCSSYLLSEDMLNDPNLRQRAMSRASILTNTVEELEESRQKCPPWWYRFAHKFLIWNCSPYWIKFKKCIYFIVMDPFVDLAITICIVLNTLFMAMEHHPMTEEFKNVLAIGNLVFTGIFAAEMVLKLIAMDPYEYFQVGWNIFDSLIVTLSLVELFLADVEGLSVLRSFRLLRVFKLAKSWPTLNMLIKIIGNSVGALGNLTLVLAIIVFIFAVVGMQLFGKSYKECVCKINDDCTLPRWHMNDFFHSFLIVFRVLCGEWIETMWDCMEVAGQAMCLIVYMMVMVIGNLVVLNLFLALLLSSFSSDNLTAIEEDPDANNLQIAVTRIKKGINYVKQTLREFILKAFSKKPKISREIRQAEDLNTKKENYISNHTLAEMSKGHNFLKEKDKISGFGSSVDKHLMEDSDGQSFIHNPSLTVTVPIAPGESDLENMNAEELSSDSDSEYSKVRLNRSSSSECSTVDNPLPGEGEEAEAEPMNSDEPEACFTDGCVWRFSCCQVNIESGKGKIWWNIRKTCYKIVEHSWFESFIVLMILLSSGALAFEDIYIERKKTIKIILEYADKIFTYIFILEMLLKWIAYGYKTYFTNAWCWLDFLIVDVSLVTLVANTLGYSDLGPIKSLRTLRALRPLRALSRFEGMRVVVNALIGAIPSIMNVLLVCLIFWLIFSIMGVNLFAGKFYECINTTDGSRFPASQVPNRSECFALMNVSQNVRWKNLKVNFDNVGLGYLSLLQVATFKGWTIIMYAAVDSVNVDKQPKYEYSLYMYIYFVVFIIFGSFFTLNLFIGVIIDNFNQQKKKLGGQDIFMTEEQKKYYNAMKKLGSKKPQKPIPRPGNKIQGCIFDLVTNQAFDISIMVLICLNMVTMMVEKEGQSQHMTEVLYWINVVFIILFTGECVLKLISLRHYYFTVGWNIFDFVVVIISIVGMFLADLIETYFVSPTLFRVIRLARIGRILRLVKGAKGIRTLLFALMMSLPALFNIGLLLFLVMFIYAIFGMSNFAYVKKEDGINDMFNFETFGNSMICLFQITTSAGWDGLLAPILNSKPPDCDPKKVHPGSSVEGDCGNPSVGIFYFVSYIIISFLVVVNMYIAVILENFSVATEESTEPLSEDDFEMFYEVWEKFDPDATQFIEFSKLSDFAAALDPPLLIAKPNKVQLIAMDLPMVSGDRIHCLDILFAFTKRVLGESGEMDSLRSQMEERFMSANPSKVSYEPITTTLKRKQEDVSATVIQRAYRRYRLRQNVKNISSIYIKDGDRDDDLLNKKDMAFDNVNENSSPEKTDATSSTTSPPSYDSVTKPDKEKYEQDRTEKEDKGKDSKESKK

Row | SMILES | IC50 [µM]
1 | CS(=O)(=O)NC(=O)c1cc(F)c(COc2ccc(OC(F)(F)F)cc2)cc1F [Example 144, 2,5-difluoro-N-(methylsulfonyl)-4-{[4-(trifluoromethoxy)phenoxy]methyl}benzamide] | 0.15
2 | CS(=O)(=O)NC(=O)c1cc(F)c(COc2ccc(F)cc2C2CC2)cc1F [Example 145, 4-[(2-cyclopropyl-4-fluorophenoxy)methyl]-2,5-difluoro-N-(methylsulfonyl)benzamide] | 2.3
3 | CS(=O)(=O)NC(=O)c1cc(F)c(COc2ccc(Cl)cc2-c2ccno2)cc1F [Example 148, 4-[(4-chloro-2-isoxazol-5-ylphenoxy)methyl]-2,5-difluoro-N-(methylsulfonyl)benzamide] | > 1
4 | CS(=O)(=O)NC(=O)c1cc(F)c(COc2c(F)cccc2Cl)cc1F [Example 149, 4-[(2-chloro-6-fluorophenoxy)methyl]-2,5-difluoro-N-(methylsulfonyl)benzamide] | 4
5 | COc1cc(C)cc(OCc2cc(F)c(C(=O)NS(C)(=O)=O)cc2F)c1 [Example 150, 2,5-difluoro-4-[(3-methoxy-5-methylphenoxy)methyl]-N-(methylsulfonyl)benzamide] | 0.5
6 | Cc1ccc(OCc2cc(F)c(C(=O)NS(C)(=O)=O)cc2F)cc1Cl [Example 151, 4-[(3-chloro-4-methylphenoxy)methyl]-2,5-difluoro-N-(methylsulfonyl)benzamide] | 0.065
7 | CS(=O)(=O)NC(=O)c1cc(F)c(COc2ccc(F)cc2C#N)cc1F [Example 153, 4-[(2-cyano-4-fluorophenoxy)methyl]-2,5-difluoro-N-(methylsulfonyl)benzamide] | 12
8 | CS(=O)(=O)NC(=O)c1cc(F)c(COc2cccc(C#N)c2)cc1F [Example 154, 4-[(3-cyanophenoxy)methyl]-2,5-difluoro-N-(methylsulfonyl)benzamide] | 11
9 | CS(=O)(=O)NC(=O)c1cc(F)c(COc2ccc(F)cc2)cc1F [Example 158, 2,5-difluoro-4-[(4-fluorophenoxy)methyl]-N-(methylsulfonyl)benzamide] | 1.5
10 | Cc1cc(OCc2cc(F)c(C(=O)NS(C)(=O)=O)cc2F)ccc1Cl [Example 159, 4-[(4-chloro-3-methylphenoxy)methyl]-2,5-difluoro-N-(methylsulfonyl)benzamide] | 0.13

More lines, now with the values ahead:

Row | IC50 [µM] | SMILES
11 | 9.7 | CC(C)Oc1ccc(F)cc1OCc1cc(F)c(C(=O)NS(C)(=O)=O)cc1F [Example 143, 2,5-difluoro-4-[(5-fluoro-2-isopropoxyphenoxy)methyl]-N-(methylsulfonyl)benzamide]
12 | > 1 | COc1ccc(OCc2cc(F)c(C(=O)NS(C)(=O)=O)cc2F)c(C#N)c1 [Example 146, 4-[(2-cyano-4-methoxyphenoxy)methyl]-2,5-difluoro-N-(methylsulfonyl)benzamide]
13 | 0.17 | CC(C)c1ccc(OCc2cc(F)c(C(=O)NS(C)(=O)=O)cc2F)cc1 [Example 147, 2,5-difluoro-4-[(4-isopropylphenoxy)methyl]-N-(methylsulfonyl)benzamide]
14 | 3.2 | COc1ccc(OCc2cc(F)c(C(=O)NS(C)(=O)=O)cc2F)c(F)c1F [Example 155, 4-[(2,3-difluoro-4-methoxyphenoxy)methyl]-2,5-difluoro-N-(methylsulfonyl)benzamide]
15 | 2.3 | COc1ccc2cccc(OCc3cc(F)c(C(=O)NS(C)(=O)=O)cc3F)c2c1 [Example 156, 2,5-difluoro-4-{[(7-methoxy-1-naphthyl)oxy]methyl}-N-(methylsulfonyl)benzamide]
16 | 2.1 | COc1ccc(OCc2cc(F)c(C(=O)NS(C)(=O)=O)cc2F)c(Cl)c1 [Example 157, 4-[(2-chloro-4-methoxyphenoxy)methyl]-2,5-difluoro-N-(methylsulfonyl)benzamide]
17 | 0.76 | COc1ccc(OCc2cc(F)c(C(=O)NS(C)(=O)=O)cc2F)c2ccccc12 [Example 160, 2,5-difluoro-4-{[(4-methoxy-1-naphthyl)oxy]methyl}-N-(methylsulfonyl)benzamide]
